Experimental findings from patent US20260317324A1, “BIFUNCTIONAL COMPOUNDS FOR DEGRADING BRAF VIA UBIQUITIN PROTEOSOME PATHWAY” (Nurix Therapeutics, Inc., priority 2023, published 2026) are described below.

Holding throughout (assay type): cell-based
For one test, the target named is T1, BRAF V600E (Homo sapiens, UniProt P15056, V600E).
T1 construct: endogenous C-terminal HiBiT fusion tag on BRAF V600E allele; endogenous in cells; host or cells: A375 clone 1F10 (CRISPR-Cas9 knock-in of the HiBiT tag; parental A375 from ATCC)
T1 sequence (P15056 whole entry V600E, the tested form may be a part): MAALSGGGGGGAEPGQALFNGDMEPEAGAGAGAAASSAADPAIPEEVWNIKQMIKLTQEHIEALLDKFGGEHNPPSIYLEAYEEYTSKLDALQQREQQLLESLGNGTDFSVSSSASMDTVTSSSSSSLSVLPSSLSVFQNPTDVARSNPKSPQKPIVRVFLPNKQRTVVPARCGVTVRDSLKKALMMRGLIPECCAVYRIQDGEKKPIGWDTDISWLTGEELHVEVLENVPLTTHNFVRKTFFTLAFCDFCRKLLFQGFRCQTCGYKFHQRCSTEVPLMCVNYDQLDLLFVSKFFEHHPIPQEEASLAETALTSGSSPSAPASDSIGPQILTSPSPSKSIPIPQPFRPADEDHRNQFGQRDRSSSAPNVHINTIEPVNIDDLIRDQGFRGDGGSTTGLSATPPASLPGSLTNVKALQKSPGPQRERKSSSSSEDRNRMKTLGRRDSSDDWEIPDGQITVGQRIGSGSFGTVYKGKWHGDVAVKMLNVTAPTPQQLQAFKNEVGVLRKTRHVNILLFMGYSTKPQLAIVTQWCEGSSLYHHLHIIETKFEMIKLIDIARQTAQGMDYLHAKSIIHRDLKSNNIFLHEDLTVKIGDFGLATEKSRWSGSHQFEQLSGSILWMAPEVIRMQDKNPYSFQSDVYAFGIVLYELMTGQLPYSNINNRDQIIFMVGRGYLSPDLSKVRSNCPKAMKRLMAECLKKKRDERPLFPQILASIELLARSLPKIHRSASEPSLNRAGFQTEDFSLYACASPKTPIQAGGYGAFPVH
As to the kind of experiment: BRAF HiBiT degradation assay, C-terminal HiBiT-tagged BRAF V600E A375 cells (clone 1F10), Nano-Glo HiBiT Lytic assay. The settings on record: for Dmax: A-375. The method in brief: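 Using CRISPR-engineered A375 cells that carry a C-terminal HiBiT tag on endogenous BRAF V600E, remaining protein was quantified by lytic luminescence relative to DMSO-treated cells, with wildtype A375 as the background control. DC50 denotes the concentration giving 50% degradation.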

The next test has as its target T2, BRAF G466V (Homo sapiens, UniProt P15056, G466V).
T2 construct: Horizon Discovery (HCT-116 BRAF−/− cells); host or cells: HCT-116 BRAF−/− cells, clone 8, lentiviral transduction
As to the kind of experiment: BRAF HiBiT degradation assay, C-terminal HiBiT-tagged BRAF G466V overexpressed in HCT-116 BRAF−/− cells (clone 8), Nano-Glo HiBiT Lytic assay. The text has this: (§1) An A375 cell line expressing a homozygous V600E mutation was purchased from ATCC (Manassas, VA, USA). An A375 clone 1F10 cell line with an endogenous C-terminal HiBiT fusion tag on BRAF V600E allele was generated internally using CRISPR-Cas9 technology and cultured in DMEM, high glucose supplemented with 10% FBS and 1× GlutaMAX. A HCT-116 BRAF−/− cell line overexpressing the C-terminal HiBiT-tagged G466V, G469A, and D594G mutants were generated by lentiviral transduction, externally at Biosettia Inc (San Diego, CA, USA). The stably transfected cells were cultured in RPMI media supplemented with 10% FBS, 1× GlutaMAX, and 0.25 μg/ml puromycin. DMEM medium, RPMI 1640 medium, GlutaMAX, fetal bovine serum (FBS), and puromycin were purchased from Gibco (Grand Island, NY, USA). HCT-116 BRAF−/− cells were purchased from Horizon Discovery (Waterbeach, UK).
(§2) The C-terminal HiBiT tagged mutant BRAF G466V, G469A, and D594G overexpressed in HCT-116 BRAF−/− cells (monoclonal cell line, cell clones 8, 34, and 63, respectively) were seeded at the density of 3,000 cells/well in 30 μL media (RPMI supplemented with 10% FBS and 1× GlutaMAX) in white opaque 384-well plates (Corning #3570) from column 1 to column 23. Wildtype HCT-116 BRAF cells were seeded in column 24 at the same cell density in 30 μL media. Cells were incubated at 37° C. with 5% CO2 for 24 h.
(§3) Intermediate compound dilution series (5-point, ranging from 5 mM to 0.5 μM, 10-fold dilutions in DMSO) were prepared in a source plate (Beckman Coulter cat. no. 001-16128). Final compound dilution series (11-point, ranging from 1 μM to 0.01 nM, half-log dilutions in DMSO) were stamped into the assay plate (Corning #3570, column 1-11 and 12-22) using the Echo Acoustic Liquid Handler (Beckman Coulter). Each compound was plated in duplicate, and the total volume of compound DMSO solution was 60 nL/well (0.2% final DMSO concentration). DMSO was included in wells A23-L23 and A24-L24. The DMSO-treated HiBiT-tagged samples served as Negative Control (NC) and the DMSO-treated wildtype samples served as Background Control (BC) for the HiBiT assay.
(§4) HiBiT signal was measured by a Nano-Glo HiBiT Lytic assay (Promega cat. no. N3050). HiBiT lytic detection reagent (Nano-Glo HiBiT Lytic Buffer with 1:50 Nano-Glo HiBiT Lytic Substrate and 1:100 LgBiT Protein, 40 μL) was added using Bravo. The mixture was incubated at room temperature, in the dark, and with gentle shaking for 10 min. Luminesce units (LU) were read on an EnVision plate reader 2105 (Perkin Elmer).
(§5) Percent protein remaining and viability remaining per sample were calculated as follows: […]
(§6) % Protein remaining values were plotted as a function of compound concentration. XC50 (DC50) values were determined by fitting curves using the following equation:
(§7) For the HiBiT degradation assay, the key parameters reported include: • The dose of compound that produces 50% degradation (DC50 at 50%): • DC50 at 50%: the Fitted X value (Conc.) at Y=50 (response) • Observed Dmax (Obs. Dmax) is the percentage protein degraded at maximal compound effect relative to DMSO-treated control: […]

The next test concerns the target T3, BRAF G469A (Homo sapiens, UniProt P15056, G469A).
T3 construct: Horizon Discovery (HCT-116 BRAF−/− cells); host or cells: HCT-116 BRAF−/− cells, clone 34, lentiviral transduction
As to the kind of experiment: BRAF HiBiT degradation assay, C-terminal HiBiT-tagged BRAF G469A overexpressed in HCT-116 BRAF−/− cells (clone 34), Nano-Glo HiBiT Lytic assay.
Text: as §1, §2, §3, §4, §5, §6, §7

A further test has as its target T4, BRAF D594G (Homo sapiens, UniProt P15056, D594G).
T4 construct: Horizon Discovery (HCT-116 BRAF−/− cells); host or cells: HCT-116 BRAF−/− cells, clone 63, lentiviral transduction
Briefly: BRAF HiBiT degradation assay, C-terminal HiBiT-tagged BRAF D594G overexpressed in HCT-116 BRAF−/− cells (clone 63), Nano-Glo HiBiT Lytic assay.
Text: as §1, §2, §3, §4, §5, §6, §7

Setting [1] is: A375 (BRAF V600E), DC50 at 50%: fitted conc. at Y=50.
[2] abbreviates: A375 (BRAF V600E), percentage protein degraded at maximal compound effect relative to DMSO.
Setting [3] is: BRAF G466V, DC50 at 50%: fitted conc. at Y=50.
Where [4] appears, read: HCT-116, BRAF G466V, percentage protein degraded at maximal compound effect relative to DMSO.
Setting [5] is: Class 2, BRAF G469A, DC50 at 50%: fitted conc. at Y=50.
The mark [6] stands for this setting: HCT-116, Class 2, BRAF G469A, percentage protein degraded at maximal compound effect relative to DMSO.
Setting [7] is: BRAF D594G, DC50 at 50%: fitted conc. at Y=50.
The mark [8] stands for this setting: HCT-116, BRAF D594G, percentage protein degraded at maximal compound effect relative to DMSO.
[9] abbreviates: A375 (BRAF V600E, Class 1), DC50 at 50% degradation.
Where [10] appears, read: A375 (BRAF V600E, Class 1), observed Dmax, % protein degraded relative to DMSO control.
The mark [11] stands for this setting: BRAF G466V (Class 3), HCT-116 BRAF−/− cells, DC50 at 50% degradation.
Setting [12] is: BRAF G466V (Class 3), HCT-116 BRAF−/− cells, observed Dmax relative to DMSO control.
[13] abbreviates: BRAF G469A (Class 2), HCT-116 BRAF−/− cells, DC50 at 50% degradation.
Setting [14] is: BRAF G469A (Class 2), HCT-116 BRAF−/− cells, observed Dmax relative to DMSO control.
[15] abbreviates: BRAF D594G (Class 3), HCT-116 BRAF−/− cells, DC50 at 50% degradation.
[16] abbreviates: BRAF D594G (Class 3), HCT-116 BRAF−/− cells, observed Dmax relative to DMSO control.

T3 sequence (P15056 whole entry G469A): as the sequence (P15056 whole entry V600E, the tested form may be a part) above, with G469A, E600V counted along it
T2 sequence (P15056 whole entry G466V): as the sequence (P15056 whole entry V600E, the tested form may be a part) above, with G466V, E600V counted along it
T4 sequence (P15056 whole entry D594G): as the sequence (P15056 whole entry V600E, the tested form may be a part) above, with D594G, E600V counted along it

Regarding `CCCS(=O)(=O)Nc1cccc(-c2nc(C(C)(C)C)sc2-c2ccnc(Nc3ccc(N4CCN(C(=O)CN5CCc6cc(C7CCC(=O)NC7=O)ccc6C5)CC4)c(F)c3)n2)c1F` (racemic) [Compound 51, Rac-N-(3-{2-tert-butyl-5-[2-({4-[4-(2-{6-[(3R)-2,6-dioxopiperidin-3-yl]-1,2,3,4-tetrahydroisoquinolin-2-yl}acetyl)piperazin-1-yl]-3-fluorophenyl}amino)pyrimidin-4-yl]-1,3-thiazol-4-yl}-2-fluorophenyl)propane-1-sulfonamide], the DC50 at BRAF V600E (setting [1]) was below 10 nM; at BRAF G466V (setting [3]), 50 to 500 nM; at BRAF G469A (setting [5]), above 500 nM; at BRAF D594G (setting [7]), 50 to 500 nM. For the same compound, the Dmax at BRAF V600E (setting [2]) was above 70%; at BRAF G466V (setting [4]) it was 30 to 70%; at BRAF G469A (setting [6]), 30 to 70%; at BRAF D594G (setting [8]), 30 to 70%.
Turning to `CCCS(=O)(=O)Nc1cccc(-c2nc(C3CCN(C(=O)C4CCN(CC5CCN(c6ccc(C7CCC(=O)NC7=O)cn6)CC5)CC4)CC3)sc2-c2ccnc(N)n2)c1F` (racemic) [Compound 261, Rac-N-{3-[5-(2-aminopyrimidin-4-yl)-2-(1-{1-[(1-{5-[(3R)-2,6-dioxopiperidin-3-yl]pyridin-2-yl}piperidin-4-yl)methyl]piperidine-4-carbonyl}piperidin-4-yl)-1,3-thiazol-4-yl]-2-fluorophenyl}propane-1-sulfonamide], the 50% degradation concentration (DC50) at BRAF V600E (setting [9]) is below 10 nM; on BRAF G466V (setting [11]) it was 50 to 500 nM; on BRAF G469A (setting [13]), above 500 nM; on BRAF D594G (setting [15]), above 500 nM. The Dmax on BRAF V600E (setting [10]) is above 70%; at BRAF G466V (setting [12]), 30 to 70%; on BRAF G469A (setting [14]), 30 to 70%; at BRAF D594G (setting [16]), 30 to 70%.
As to `O=C1CCN(c2ccc(N3CCC(CN4CCN(c5ccc(-n6cc(-c7cc(Cl)cc(NS(=O)(=O)N8CCCC8)c7F)c(-c7ccncc7)n6)cc5)CC4)CC3)cc2)C(=O)N1` [Compound 283, N-[5-chloro-3-(1-{4-[4-({1-[4-(2,4-dioxo-1,3-diazinan-1-yl)phenyl]piperidin-4-yl}methyl)piperazin-1-yl]phenyl}-3-(pyridin-4-yl)-1H-pyrazol-4-yl)-2-fluorophenyl]pyrrolidine-1-sulfonamide], the DC50 on BRAF V600E (setting [9]) was below 10 nM; at BRAF G466V (setting [11]), below 10 nM; at BRAF G469A (setting [13]) it was above 500 nM; on BRAF D594G (setting [15]) it was below 10 nM. The Dmax on BRAF V600E (setting [10]) was above 70%; at BRAF G466V (setting [12]) it was above 70%; on BRAF G469A (setting [14]), 30 to 70%; at BRAF D594G (setting [16]), 30 to 70%.
Take `CCCS(=O)(=O)Nc1cccc(-c2nc(C(C)(C)C)sc2-c2ccnc(Nc3ccc4c(c3)CCN(C(=O)CN3CCC(c5ccc(NC6CCC(=O)NC6=O)cc5)CC3)C4)n2)c1F` (racemic) [Compound 123, Rac-N-[3-(2-tert-butyl-5-{2-[(2-{2-[4-(4-{[(3R)-2,6-dioxopiperidin-3-yl]amino}phenyl)piperidin-1-yl]acetyl}-1,2,3,4-tetrahydroisoquinolin-6-yl)amino]pyrimidin-4-yl}-1,3-thiazol-4-yl)-2-fluorophenyl]propane-1-sulfonamide]: the 50% degradation concentration (DC50) on BRAF V600E (setting [1]) was 10 to 50 nM; at BRAF G466V (setting [3]), above 500 nM; at BRAF G469A (setting [5]) it was above 500 nM; at BRAF D594G (setting [7]) it was above 500 nM. Besides, the greatest degradation seen (Dmax) is 30 to 70% at BRAF V600E (setting [2]), below 30% on BRAF G466V (setting [4]), below 30% at BRAF G469A (setting [6]) and below 30% at BRAF D594G (setting [8]).
Turning to `C[C@@H]1CN(c2ccc(-n3cc(-c4cc(Cl)cc(NS(=O)(=O)N5CCCC5)c4F)c(-c4ccncc4)n3)cc2)CCN1CC1CCN(c2ccc([C@H]3CCC(=O)NC3=O)cc2)CC1` [Compound 316, N-[5-chloro-3-(1-{4-[(3R)-4-[(1-{4-[(3R)-2,6-dioxopiperidin-3-yl]phenyl}piperidin-4-yl)methyl]-3-methylpiperazin-1-yl]phenyl}-3-(pyridin-4-yl)-1H-pyrazol-4-yl)-2-fluorophenyl]pyrrolidine-1-sulfonamide], the half-maximal degradation concentration (DC50) at BRAF V600E (setting [9]) was below 10 nM; on BRAF G466V (setting [11]) it was below 10 nM; on BRAF G469A (setting [13]) it was 10 to 50 nM; on BRAF D594G (setting [15]) it was below 10 nM. Also, the Dmax at BRAF V600E (setting [10]) is above 70%; at BRAF G466V (setting [12]), above 70%; at BRAF G469A (setting [14]) it was above 70%; at BRAF D594G (setting [16]), 30 to 70%.
Regarding `CCCS(=O)(=O)Nc1cccc(-c2nc(C(C)(C)C)sc2-c2ccnc(Nc3ccc4c(c3)CCN(C(=O)C3CCN(c5ccc(C(=O)NC6CCC(=O)NC6=O)nc5)CC3)C4)n2)c1F` (racemic) [Compound 122, Rac-5-(4-{6-[(4-{2-tert-butyl-4-[2-fluoro-3-(propane-1-sulfonamido)phenyl]-1,3-thiazol-5-yl}pyrimidin-2-yl)amino]-1,2,3,4-tetrahydroisoquinoline-2-carbonyl}piperidin-1-yl)-N-[(3R)-2,6-dioxopiperidin-3-yl]pyridine-2-carboxamide], the Dmax on BRAF V600E (setting [2]) fell in the range of 30 to 70%.
The compound `CCCS(=O)(=O)Nc1cccc(-c2cn(-c3ccc(C(=O)N4CCN(CC5CCN(c6ccc([C@H]7CCC(=O)NC7=O)cc6)CC5)CC4)cc3)nc2-c2ccncc2)c1F` [Compound 11, N-{3-[1-(4-{4-[(1-{4-[(3R)-2,6-dioxopiperidin-3-yl]phenyl}piperidin-4-yl)methyl]piperazine-1-carbonyl}phenyl)-3-(pyridin-4-yl)-1H-pyrazol-4-yl]-2-fluorophenyl}propane-1-sulfonamide] returned a DC50 at BRAF V600E (setting [1]) of 50 to 500 nM. The compound further came in with a Dmax on BRAF V600E (setting [2]) of 30 to 70%.
